Measured values reported in patent US8802597B2, “Herbicidal pyrimidines” (E I du Pont de Nemours and Company, priority 2003, dated 2014).

Experiments:
Assay type in all cases: in vivo
[1] = test system: common chickweed (Stellaria media); assay: Test D pre/postemergence; conditions: scale 0 to 100 (100 = complete control)
In short: (§1)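 Pre: seeds sown, then treated. Post: plants at 1- to 4-leaf stage (2 to 18 cm) sprayed at the same time. Chemicals formulated in a non-phytotoxic solvent mixture including surfactant. After 15 to 25 days under controlled growth conditions, response rated visually from 0 (no effect) to 100 (complete control).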

[2] = test system: wild mustard (Sinapis arvensis); assay: Test D pre/postemergence; conditions: scale 0 to 100 (100 = complete control)
In short: as §1

kochia (Kochia scoparia) = assay: Test D pre/postemergence; conditions: scale 0 to 100 (100 = complete control)
In short: as §1

[3] = test system: lambsquarters (Chenopodium album); assay: Test D pre/postemergence; conditions: scale 0 to 100 (100 = complete control)
In short: as §1

[4] = test system: wild buckwheat (Polygonum convolvulus); assay: Test D pre/postemergence; conditions: scale 0 to 100 (100 = complete control)
In short: as §1

[5] = test system: pigweed (Amaranthus retroflexus); assay: Test D pre/postemergence; conditions: scale 0 to 100 (100 = complete control)
In short: as §1

[6] = test system: wheat (Triticum aestivum); assay: Test D pre/postemergence; conditions: scale 0 to 100 (100 = complete control)
In short: as §1

[7] = test system: catchweed bedstraw (galium; Galium aparine); assay: Test D pre/postemergence; conditions: scale 0 to 100 (100 = complete control)
In short: as §1

[8] = test system: Russian thistle (Salsola kali); assay: Test D pre/postemergence; conditions: scale 0 to 100 (100 = complete control)
In short: as §1

[9] = test system: winter barley (Hordeum vulgare); assay: Test C postemergence; conditions: for Plant response rating, Barley: scale 0 to 100
In short: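 We sprayed seeded pots preemergence and 2–18 cm seedlings postemergence with test chemicals in a non-phytotoxic solvent mixture including surfactant. Greenhouse plants were visually compared with untreated controls at 12 to 14 days and scored 0 (no effect) to 100 (complete control).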

With `COC(=O)c1nc(C2CC2)nc(NO)c1Br` [Compound 35] as the compound, how does the “Plant response rating, Chickweed” value ([1]; Postemergence, 62 g ai/ha) read?
The value was 80.

And the “Plant response rating, Chickweed” value ([1]; Postemergence, 125 g ai/ha)?
The value was 80.

What about the “Plant response rating, Chickweed” value ([1]; Postemergence, 250 g ai/ha) of the same compound?
Its value is 85.

What about the “Plant response rating, Chickweed” value ([1]; Preemergence, 62 g ai/ha) of the same compound?
The value was 60.

And the “Plant response rating, Chickweed” value ([1]; Preemergence, 125 g ai/ha)?
The value was 100.

And the “Plant response rating, Chickweed” value ([1]; Preemergence, 250 g ai/ha)?
The value was 100.

What about the “Plant response rating, Mustard, Wild” value ([2]; Postemergence, 62 g ai/ha) of the same compound?
The value was 75.

And the “Plant response rating, Mustard, Wild” value ([2]; Postemergence, 125 g ai/ha)?
The value was 75.

And the “Plant response rating, Mustard, Wild” value ([2]; Postemergence, 250 g ai/ha)?
The value was 75.

And the “Plant response rating, Mustard, Wild” value ([2]; Preemergence, 62 g ai/ha)?
Its value is 65.

And the “Plant response rating, Mustard, Wild” value ([2]; Preemergence, 125 g ai/ha)?
Its value is 70.

And the “Plant response rating, Mustard, Wild” value ([2]; Preemergence, 250 g ai/ha)?
The value was 75.

And the “Plant response rating, Kochia” value (kochia (Kochia scoparia); Postemergence, 62 g ai/ha)?
Its value is 80.

What about the “Plant response rating, Kochia” value (kochia (Kochia scoparia); Postemergence, 125 g ai/ha) of the same compound?
The value was 85.

And the “Plant response rating, Kochia” value (kochia (Kochia scoparia); Postemergence, 250 g ai/ha)?
The value was 85.

What about the “Plant response rating, Kochia” value (kochia (Kochia scoparia); Preemergence, 62 g ai/ha) of the same compound?
The value was 75.

And the “Plant response rating, Kochia” value (kochia (Kochia scoparia); Preemergence, 125 g ai/ha)?
Its value is 100.

What about the “Plant response rating, Kochia” value (kochia (Kochia scoparia); Preemergence, 250 g ai/ha) of the same compound?
Its value is 100.

And the “Plant response rating, Lambsquarters” value ([3]; Postemergence, 62 g ai/ha)?
The value was 100.

What about the “Plant response rating, Lambsquarters” value ([3]; Postemergence, 125 g ai/ha) of the same compound?
Its value is 100.

What about the “Plant response rating, Lambsquarters” value ([3]; Postemergence, 250 g ai/ha) of the same compound?
The value was 100.

What about the “Plant response rating, Lambsquarters” value ([3]; Preemergence, 62 g ai/ha) of the same compound?
Its value is 65.

What about the “Plant response rating, Lambsquarters” value ([3]; Preemergence, 125 g ai/ha) of the same compound?
The value was 75.

What about the “Plant response rating, Lambsquarters” value ([3]; Preemergence, 250 g ai/ha) of the same compound?
Its value is 80.

What about the “Plant response rating, Buckwheat, Wild” value ([4]; Postemergence, 62 g ai/ha) of the same compound?
The value was 60.

And the “Plant response rating, Buckwheat, Wild” value ([4]; Postemergence, 125 g ai/ha)?
Its value is 70.

What about the “Plant response rating, Buckwheat, Wild” value ([4]; Postemergence, 250 g ai/ha) of the same compound?
Its value is 80.

What about the “Plant response rating, Buckwheat, Wild” value ([4]; Preemergence, 62 g ai/ha) of the same compound?
Its value is 55.

What about the “Plant response rating, Buckwheat, Wild” value ([4]; Preemergence, 125 g ai/ha) of the same compound?
Its value is 60.

And the “Plant response rating, Buckwheat, Wild” value ([4]; Preemergence, 250 g ai/ha)?
The value was 65.

What about the “Plant response rating, Pigweed” value ([5]; Postemergence, 62 g ai/ha) of the same compound?
The value was 100.

And the “Plant response rating, Pigweed” value ([5]; Postemergence, 125 g ai/ha)?
Its value is 100.

And the “Plant response rating, Pigweed” value ([5]; Postemergence, 250 g ai/ha)?
Its value is 100.

What about the “Plant response rating, Pigweed” value ([5]; Preemergence, 62 g ai/ha) of the same compound?
The value was 65.

And the “Plant response rating, Pigweed” value ([5]; Preemergence, 125 g ai/ha)?
The value was 80.

And the “Plant response rating, Pigweed” value ([5]; Preemergence, 250 g ai/ha)?
The value was 85.

What about the “Plant response rating, Wheat” value ([6]; Postemergence, 62 g ai/ha) of the same compound?
The value was 0.

What about the “Plant response rating, Wheat” value ([6]; Postemergence, 125 g ai/ha) of the same compound?
The value was 65.

What about the “Plant response rating, Wheat” value ([6]; Postemergence, 250 g ai/ha) of the same compound?
Its value is 70.

What about the “Plant response rating, Wheat” value ([6]; Preemergence, 62 g ai/ha) of the same compound?
The value was 35.

And the “Plant response rating, Wheat” value ([6]; Preemergence, 125 g ai/ha)?
The value was 40.

And the “Plant response rating, Wheat” value ([6]; Preemergence, 250 g ai/ha)?
The value was 50.

What about the “Plant response rating, Galium” value ([7]; Postemergence, 62 g ai/ha) of the same compound?
The value was 100.

What about the “Plant response rating, Galium” value ([7]; Postemergence, 125 g ai/ha) of the same compound?
Its value is 100.

What about the “Plant response rating, Galium” value ([7]; Postemergence, 250 g ai/ha) of the same compound?
Its value is 100.

And the “Plant response rating, Galium” value ([7]; Preemergence, 62 g ai/ha)?
The value was 85.

And the “Plant response rating, Galium” value ([7]; Preemergence, 125 g ai/ha)?
The value was 100.

And the “Plant response rating, Galium” value ([7]; Preemergence, 250 g ai/ha)?
Its value is 100.

And the “Plant response rating, Russian Thistle” value ([8]; Postemergence, 62 g ai/ha)?
Its value is 100.

What about the “Plant response rating, Russian Thistle” value ([8]; Postemergence, 125 g ai/ha) of the same compound?
Its value is 100.

And the “Plant response rating, Russian Thistle” value ([8]; Postemergence, 250 g ai/ha)?
The value was 100.

And the “Plant response rating, Russian Thistle” value ([8]; Preemergence, 62 g ai/ha)?
The value was 85.

And the “Plant response rating, Russian Thistle” value ([8]; Preemergence, 125 g ai/ha)?
Its value is 100.

And the “Plant response rating, Russian Thistle” value ([8]; Preemergence, 250 g ai/ha)?
Its value is 100.

And the “Plant response rating, Barley” value ([9]; 250 g ai/ha)?
Its value is 40.

What about the “Plant response rating, Barley” value ([9]; 500 g ai/ha) of the same compound?
The value was 45.

What about the plant injury at 62 g/ha ([9]; Hordeum vulgare, post-emergence, 62 g ai/ha, scale 0 to 100 (0 no effect, 100 complete control), read-out: Barley plant response rating) of the same compound?
Its plant injury at 62 g/ha is 20%.

And the plant injury at 125 g/ha ([9]; Hordeum vulgare, post-emergence, 125 g ai/ha, scale 0 to 100 (0 no effect, 100 complete control), read-out: Barley plant response rating)?
Its plant injury at 125 g/ha is 35%.
